The record followed here is ChEMBL document CHEMBL3046274, “Toxicity of imidacloprid to developmental stages of Rhynchophorus ferrugineus (Curculionidae: Coleoptera): Laboratory and field tests” (Crop Prot, 2006).

Holding throughout (format): functional
Assay [1] deals with Rhynchophorus ferrugineus. Kind of assay: Pesticidal activity against Rhynchophorus ferrugineus (red palm weevil) larvae assessed as mortality at 100 ppm administered topically at 36 hr post-treatment.
In assay [2] the test system is Rhynchophorus ferrugineus. The experiment in a line: Pesticidal activity against adult Rhynchophorus ferrugineus (red palm weevil) assessed as mortality at 1.5 ppm, po at 24 hr post-treatment relative to control.
Assay [3] relates to Rhynchophorus ferrugineus. The experiment in a line: Pesticidal activity against adult Rhynchophorus ferrugineus (red palm weevil) assessed as mortality at 1 ppm, po at 18 hr post-treatment relative to control.
The subject of assay [4] is Rhynchophorus ferrugineus. The experiment in a line: Pesticidal activity against adult Rhynchophorus ferrugineus (red palm weevil) assessed as mortality at 1000 ppm administered topically at 36 hr post-treatment.
Assay [5] has as its system Rhynchophorus ferrugineus. The experiment in a line: Pesticidal activity against Rhynchophorus ferrugineus (red palm weevil) cocoons assessed as mortality at 3.5 ml/l administered by dipping for 3 min measured within 3 days.
The test system of assay [6] is Rhynchophorus ferrugineus. The experiment in a line: Pesticidal activity against adult Rhynchophorus ferrugineus (red palm weevil) assessed as mortality at 1.5 ppm, po at 18 hr post-treatment relative to control.
The subject of assay [7] is Rhynchophorus ferrugineus. The experiment in a line: Pesticidal activity against Rhynchophorus ferrugineus (red palm weevil) larvae assessed as mortality at 1.5 ppm, po at 114 hr post-treatment relative to control.
Assay [8] relates to Rhynchophorus ferrugineus. Kind of assay: Contact toxicity against Rhynchophorus ferrugineus (red palm weevil) adults assessed as time required for 50% mortality at 3.5 ml/l for 2 min.
In assay [9] the test system is Rhynchophorus ferrugineus. Kind of assay: Contact toxicity against Rhynchophorus ferrugineus (red palm weevil) adults assessed as time required for 50% reversible knockdown at 2.5 ml/l for 2 min.
In assay [10] the test system is Rhynchophorus ferrugineus. Kind of assay: Pesticidal activity against Rhynchophorus ferrugineus (red palm weevil) larvae assessed as mortality at 1.5 ppm, po at 90 hr post-treatment relative to control.
Assay [11] has as its system Rhynchophorus ferrugineus. The experiment in a line: Pesticidal activity against Rhynchophorus ferrugineus (red palm weevil) cocoon assessed as mortality at 2 ppm administered by dipping for 3 min measured at 24 hr post-treatment relative to control.
Assay [12] deals with Rhynchophorus ferrugineus. The experiment in a line: Pesticidal activity against adult Rhynchophorus ferrugineus (red palm weevil) assessed as time required for reversible knockdown at 1.5 ml/l administered topically.
The subject of assay [13] is Rhynchophorus ferrugineus. Kind of assay: Pesticidal activity against Rhynchophorus ferrugineus (red palm weevil) cocoons assessed as time required for total mortality at 2.5 ml/l administered by dipping for 30 secs.
The test system of assay [14] is Rhynchophorus ferrugineus. Kind of assay: Pesticidal activity against adult Rhynchophorus ferrugineus (red palm weevil) assessed as mortality at 300 ppm administered topically at 72 hr post-treatment.
Assay [15] has as its system Rhynchophorus ferrugineus. The experiment in a line: Pesticidal activity against adult Rhynchophorus ferrugineus (red palm weevil) assessed as mortality at 0.5 ppm, po at 114 hr post-treatment relative to control.
Assay [16] concerns Rhynchophorus ferrugineus. Kind of assay: Pesticidal activity against Rhynchophorus ferrugineus (red palm weevil) cocoon assessed as mortality at 1.5 ppm administered by dipping for 3 min measured at 72 hr post-treatment relative to control.
For assay [17], the system named is Rhynchophorus ferrugineus. The experiment in a line: Pesticidal activity against Rhynchophorus ferrugineus (red palm weevil) larvae assessed as mortality at 1000 ppm administered topically at 48 hr post-treatment.
Assay [18] has as its system Rhynchophorus ferrugineus. The experiment in a line: Pesticidal activity against Rhynchophorus ferrugineus (red palm weevil) larvae assessed as mortality at 0.5 ppm, po at 114 hr post-treatment relative to control.

The structures appear in SMILES notation.

Regarding `O=[N+]([O-])/N=C1\NCCN1Cc1ccc(Cl)nc1` [IMIDACLOPRID], the Activity was 0% in assay [1]; 72.2% in [2]; 38.9% in assay [3]; 100% in assay [4]; 76.7% in assay [5]; 72.2% in assay [6]. Also, the Activity stood at 100% in [7]; 100% in assay [10]; 0% in assay [11]; 100% in [14]; 72.2% in assay [15]; 0% in [16]. Further, the Activity in [17] and in assay [18] was 100% each time. The Time in [8] was found to be 4.1 days; in [9], 1.1 days; in assay [12], 4 days; in [13] it was 9.2 days.
